Like-named read-outs stand apart in the source and are kept apart here.
Key:
hERG = hERG (Homo sapiens, UniProt Q12809); assay: hERG Fast Patch assay (WuXiApptec)
Pim-1 kinase = Pim-1 kinase (Homo sapiens, UniProt P11309); assay: Pim-1 kinase inhibition assay (Promega Kinase-Glo); format: biochemical
Excerpt: One illustrative manner in which Pim-1 kinase activity can be determined is by quantifying the amount of ATP remaining in solution after an in vitro Pim-1 kinase reaction. The Kinase-Glo Assay Kit (Promega, Inc., Madison, WI) allows this. The amount of ATP remaining in the solution after the kinase reaction serves as a substrate for the luciferase to catalyze luciferin to oxyluciferin plus one photon of light. Thus, the luminescent signal read by the Luminoskan Ascent Instrument (Thermo Electron Corp., Milford, MA) correlates with the amount of ATP present after the kinase reaction and inversely correlates with the amount of kinase acitivity. […] These assays are set up in duplicate 50ul volumes in white, flat bottom 96 well plates. […] This solution is incubated at 30 degrees Celsius at 360rpm for two hours. Following the incubation, 50ul of Kinase-Glo reagent is added to each well, including all positive and negative control wells, and incubated at room temperature for 15 minutes. […] The IC50 values can then be calculated for each inhibitor tested.

MOLM-13 = assay: In vitro viability assay, MOLM-13; format: cell-based
Procedure: (§1) Adherent or suspension cancer cell lines were seeded at 2000-5000 cells/well in a 96-well plate, or 1000-2000 cells/well in a 384-well plate. Suspension cells were treated with drug the same day as seeding, while adherent cells were incubated overnight at 37°Cin 5% CO2 prior to drug treatment. All cells were treated for 72 hours, then lysed with ATPlite (Perkin Elmer) and measured on an Envision microplate reader. IC50 values were determined using GraphPad Prism software.
(§2) Over 35 cell lines were tested, and the most sensitive cell lines from various indications were selected and verified by multiple EC50 determinations (Figure 6). […] Antiproliferative activity using PIM-2 shRNA against FLT3-ITD driven leukemia lines has been observed (Adam (2006) Cancer Res 66:3828-35 data not shown).

MV-4-11 = assay: In vitro viability assay, MV-4-11; format: cell-based
Procedure: as §1, §2

[1] = Table IV, Kinase-Glo, 10uM ATP, read-out: IC50 on Pim1
[2] = Table V, Kinase-Glo, 10uM ATP, read-out: IC50 on Pim1
[3] = Table V, cells that print µM, read-out: IC50 on Pim1

Chain of hERG (Q12809 whole entry): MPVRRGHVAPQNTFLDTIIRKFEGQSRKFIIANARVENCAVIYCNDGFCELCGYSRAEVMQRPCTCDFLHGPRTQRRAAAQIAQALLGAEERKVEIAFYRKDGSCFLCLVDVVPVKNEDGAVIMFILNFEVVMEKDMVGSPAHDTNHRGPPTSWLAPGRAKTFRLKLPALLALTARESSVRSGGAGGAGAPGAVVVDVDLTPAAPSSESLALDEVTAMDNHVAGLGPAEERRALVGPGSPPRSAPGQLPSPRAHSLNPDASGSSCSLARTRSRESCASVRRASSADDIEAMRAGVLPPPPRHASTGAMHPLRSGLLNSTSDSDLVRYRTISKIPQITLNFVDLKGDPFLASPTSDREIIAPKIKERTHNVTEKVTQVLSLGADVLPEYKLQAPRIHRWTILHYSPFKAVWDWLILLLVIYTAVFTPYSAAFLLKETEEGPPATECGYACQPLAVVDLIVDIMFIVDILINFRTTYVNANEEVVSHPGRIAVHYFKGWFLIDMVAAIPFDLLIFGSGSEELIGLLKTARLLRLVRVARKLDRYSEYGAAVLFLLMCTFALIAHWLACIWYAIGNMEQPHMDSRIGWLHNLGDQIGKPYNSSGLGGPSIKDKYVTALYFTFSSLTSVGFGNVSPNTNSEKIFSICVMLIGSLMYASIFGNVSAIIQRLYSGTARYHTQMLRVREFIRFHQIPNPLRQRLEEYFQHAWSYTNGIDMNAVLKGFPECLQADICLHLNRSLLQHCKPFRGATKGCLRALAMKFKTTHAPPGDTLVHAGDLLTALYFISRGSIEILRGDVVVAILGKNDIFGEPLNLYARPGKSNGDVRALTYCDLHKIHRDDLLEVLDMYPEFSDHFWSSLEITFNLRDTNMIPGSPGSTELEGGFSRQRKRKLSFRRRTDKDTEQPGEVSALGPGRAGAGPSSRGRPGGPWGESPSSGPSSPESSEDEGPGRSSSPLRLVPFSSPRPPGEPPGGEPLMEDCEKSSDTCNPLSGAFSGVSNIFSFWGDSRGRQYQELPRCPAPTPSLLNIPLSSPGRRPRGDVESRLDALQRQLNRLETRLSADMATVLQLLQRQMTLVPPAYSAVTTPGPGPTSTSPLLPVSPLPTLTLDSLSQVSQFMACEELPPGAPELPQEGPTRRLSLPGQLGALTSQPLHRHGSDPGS
Chain of Pim-1 kinase (P11309 whole entry): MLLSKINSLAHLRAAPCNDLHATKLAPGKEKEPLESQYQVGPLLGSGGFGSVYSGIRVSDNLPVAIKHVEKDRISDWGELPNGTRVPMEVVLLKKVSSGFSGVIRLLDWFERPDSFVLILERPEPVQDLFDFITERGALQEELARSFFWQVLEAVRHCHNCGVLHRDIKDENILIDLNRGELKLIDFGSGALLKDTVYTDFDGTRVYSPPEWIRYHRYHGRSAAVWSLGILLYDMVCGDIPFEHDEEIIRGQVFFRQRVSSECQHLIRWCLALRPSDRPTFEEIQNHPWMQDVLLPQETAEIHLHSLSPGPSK

Structure (SMILES) | IC50 (Pim-1 kinase; [1]) | IC50 (Pim-1 kinase; [2]) | also measured
C[C@]1(O)CC[C@H](Nc2ccc3ncc(-c4cccc(OC(F)(F)F)c4)n3n2)CC1 [8-9, 1-Methyl-4-((3-(3-(trifluoromethoxy)phenyl)imidazo[1,2-b]pyridazin-6-yl)amino)-trans-cyclohexanol] |  |  | IC50 (hERG): 26 µM
CC(C)(O)[C@H]1CC[C@H](Nc2ccc3ncc(-c4cccc(OC(F)(F)F)c4)n3n2)CC1 [8-10] | 0.009 µM |  | IC50 (hERG): > 30 µM
O=S1(=O)CCC(CNc2ccc3ncc(-c4cccc(OC(F)(F)F)c4)n3n2)CC1 [8-13, 4-(((3-(3-(Trifluoromethoxy)phenyl)imidazo[1,2-b]pyridazin-6-yl)amino)methyl)tetrahydro-2H-thiopyran 1,1-dioxide] | 0.058 µM |  | IC50 (hERG): 10 µM
CO[C@H]1CC[C@H](Nc2ccn3ncc(-c4cccc(Cl)c4)c3n2)CC1 [8-64, 3-((3-Chlorophenyl)-N-4-methoxy-trans-cyclohexyl)pyrazolo[1,5-a]pyrimidin-5-amine] | 0.068 µM |  | IC50 (hERG): > 30 µM
O=S1(=O)CCC(CNc2ccn3ncc(-c4cccc(Cl)c4)c3n2)CC1 [8-66, 4-(((3-(3-Chlorophenyl)pyrazolo[1,5-a]pyrimidin-5-yl)amino)methyl)tetrahydro-2H-thiopyran 1.1-dioxide] | 0.164 µM |  | 
CN1CCC(CNc2ccn3ncc(-c4cccc(OC(F)(F)F)c4)c3n2)CC1 [8-67, N-((1-Methylpiperidin-4-yl)methyl)-3-(3-(trifluoromethoxy)phenyl)pyrazolo[1,5-a]pyrimidin-5-amine] | 0.045 µM |  | 
N[C@H]1CC[C@H](Nc2ccc3ncc(-c4cccc(Cl)c4)n3n2)CC1 [8-68, N1-(3-(3-Chlorophenyl)imidazo[1,2-b]pyridazin-6-yl)cyclohexane-1,4-trans-diamine] | 0.004 µM |  | 
NC1CCCC(Nc2ccc3ncc(-c4cccc(Cl)c4)n3n2)C1 (stereo not shown) [8-70, N^1-(3-(3-chlorophenyl)imidazo[1,2-b]pyridazin-6-yl)cyclohexane-1,3-diamine] | 0.008 µM |  | 
N[C@H]1CCCN(c2ccc3ncc(-c4cccc(Cl)c4)n3n2)C1 [8-71, (S)-1-(3-(3-chlorophenyl)imidazo[1,2-b]pyridazin-6-yl)piperidin-3-amine] | 0.012 µM |  | 
CC(C)(O)[C@H]1CC[C@H](Nc2ccc3ncc(-c4cccc(F)c4)n3n2)CC1 [8-75, 2-(trans-4-((3-(3-fluorophenyl)imidazo[1,2-b]pyridazin-6-yl)amino)cyclohexyl)propan-2-ol] | 0.056 µM |  | 
ON=C1CCC(Nc2ccc3ncc(-c4cccc(Cl)c4)n3n2)CC1 (stereo not shown) [8-92, 4-((3-(3-chlorophenyl)imidazo[1,2-b]pyridazin-6-yl)amino)cyclohexanone oxime] | 0.038 µM |  | 
N[C@H]1CCCN(c2ccn3ncc(-c4cccc(Cl)c4)c3n2)C1 [8-96, (S)-1-(3-(3-chlorophenyl)pyrazolo[1,5-a]pyrimidin-5-yl)piperidin-3-amine] | 0.094 µM |  | 
CC(C)(O)[C@H]1CC[C@H](Nc2ccc3nnc(-c4cccc(OC(F)(F)F)c4)n3c2)CC1 [8-101] |  | 0.488 µM | 
FC(F)(F)Oc1cccc(-c2nnc3ccc(NC4CCOCC4)cn23)c1 [8-102, N-(Tetrahydro-2H-pyran-4-yl)-3-(3-(trifluoromethoxy)phenyl)-[1,2,4]triazolo[4,3-a]pyridin-6-amine] |  | 3.25 µM | 
O=S1(=O)CCC(CNc2ccc3nnc(-c4cccc(OC(F)(F)F)c4)n3c2)CC1 [8-103, 4-(((3-(3-(Trifluoromethoxy)phenyl)-[1,2,4]triazolo[4,3-a]pyridin-6-y/)amino)methyl)tetrahydro-2H-thiopyran 1,1-dioxide] |  | 3.8 µM | 
O[C@H]1CC[C@H](Nc2ccc3nnc(-c4cccc(OC(F)(F)F)c4)n3c2)CC1 [8-104, 4-((3-(3-(Trifluoromethoxy)phenyl)-[1,2,4]triazolo[4,3-a]pyridin-6-yl)amino)-trans-cyclohexanol] |  | 0.684 µM | 
FC(F)(F)Oc1cccc(-c2nnc3ccc(N[C@H]4CC[C@@H](Br)CC4)cn23)c1 [8-105, 4-(cis-Bromocyclohexyl)-3-(3-(trifluoromethoxy)phenyl)-(1,2,4]triazolo[4,3-a]pyridin-6-amine] |  | 2.49 µM | 
O[C@H]1CC[C@H](Nc2ccc3nnc(-c4cccc(C(F)(F)F)c4)n3c2)CC1 [8-107, 4-((3-(3-(Trifluoromethyl)phenyl)-[1,2,4]triazolo[4,3-a]pyridin-6-yl)amino)-trans-cyclohexanol] |  | 3.95 µM | 
CC(C)(O)[C@H]1CC[C@H](Nc2ccc3nnc(-c4cccc(C(F)(F)F)c4)n3c2)CC1 [8-109] |  | 3.87 µM | 
FC(F)(F)c1cccc(-c2nnc3ccc(NC4CCOCC4)cn23)c1 [8-110, N-(Tetrahydro-2H-pyran-4-y/)-3-(3-(trifluoromethy/)pheny/)-[1,2,4]triazolo[4,3-a]pyridin-6-amine] |  | 3.17 µM | 
O=S1(=O)CCC(CNc2ccc3nnc(-c4cccc(C(F)(F)F)c4)n3c2)CC1 [8-111] |  |  | IC50 (Pim-1 kinase; [3]): > 30 µM
OCCOc1ccc2nnc(-c3cccc(C(F)(F)F)c3)n2c1 [8-112, 2-((3-(3-(trifluoromethyl)phenyl)-[1,2,4]triazolo[4,3-a]pyridin-6-yl)oxy)ethanol] |  |  | IC50 (Pim-1 kinase; [3]): > 30 µM
CC(C)(O)[C@H]1CC[C@H](Nc2ccc3ncc(-c4cccc(C(F)(F)F)c4)n3n2)CC1 [SGI-9481] |  |  | sensitivity in viability assay (MOLM-13): particularly sensitive; sensitivity in viability assay (MV-4-11): particularly sensitive

Reference: patent EP3409278B1, “HETEROCYCLIC PROTEIN KINASE INHIBITORS” (Tolero Pharmaceuticals, Inc., priority 2011, dated 2013)
